From PMC8472913 (Viruses, 2021)
Like-named read-outs stand apart in the source and are kept apart here.

Columns and labels:
[1] = system: Murine norovirus (MNV, strain MNV 1.CW1); test: MNV-induced CPE reduction assay (MTS) in RAW 264.7 cells; assay type: cell-based; conditions: for selectivity index (SI): MNV, CC50/EC50
HuNoV GI.1 replicon [2] = test: HuNoV GI.1 replicon assay in HGT cells (RT-qPCR); assay type: cell-based, Human norovirus
[3] = Pharmacokinetic studies in mice; assay type: in vivo; conditions: CD-1 mice; for AUC(0-t) / Cmax / Tmax / bioavailability / half-life / AUC(0-inf) / MRT inf / clearance: male, mouse, serum; for AUC(0-inf): read-out: AUCINF_obs; for MRT inf: read-out: MRTINF_obs; for clearance: read-out: CL_obs
[4] = system: compound 4res MNV variant; test: Generation of drug-resistant MNV variants; assay type: cell-based, Murine norovirus; conditions: after 25 passages (6 months)
[5] = biological target: mutated GI.1 proteases (A105V, I109V, A105V/I109V) (Norovirus, UniProt Q83883, I1209V); test: Cell-based FRET protease assay, mutated GI.1 proteases; set-up: species or system Human norovirus; conditions: versus WT
[6] = biological target: mutated GI.1 proteases (A105V, I109V, A105V/I109V) (Norovirus, UniProt Q83883, A1205V/I1209V); test: as above; set-up: species or system Human norovirus; conditions: versus WT
[7] = biological target: mutated GI.1 proteases (A105V, I109V, A105V/I109V) (Norovirus, UniProt Q83883, A1205V); test: as above; set-up: species or system Human norovirus; conditions: versus WT
HuNoV GI.1 replicon [8] = test: HuNoV GI.1 replicon clearance assay; assay type: cell-based, Human norovirus; conditions: for reduction in HuNoV GI.1 RNA: 10 µM
[9] = system: Murine norovirus (MNV, strain MNV 1.CW1); test: MNV virus yield assay, viral RNA by RT-qPCR; assay type: cell-based; conditions: Norwalk virus, RAW264.7, RAW 264.7 cells
GI.1 protease = GI.1 protease (Norovirus, UniProt Q83883); test: Cell-based FRET protease assay, GI.1 protease; set-up: species or system Human norovirus
HGT cells = test: Adverse effects on host cells of the HuNoV GI.1 replicon assay; assay type: cell-based; conditions: up to the highest tested concentration of 100 µM
GII protease = GII protease (Lordsdale virus, UniProt P54634); test: Cell-based FRET protease assay, GII protease; set-up: species or system norovirus
[10] = Cytotoxicity assay (MTS) in RAW 264.7 cells; assay type: cell-based; conditions: mouse
GV protease = GV protease (Norovirus, UniProt Q80J95); test: Cell-based FRET protease assay, GV protease
[11] = system: HuNoV GI.1 replicon variants; test: Generation of drug-resistant HuNoV GI.1 replicon variants; assay type: cell-based, Human norovirus; conditions: for EC50: Norovirus
Water solubility = assay type: physicochemical
[12] = system: Murine norovirus (MNV, strain MNV 1.CW1); set-up: method as in earlier work; conditions: read-out: EC50 against MNV; cited from earlier work
[13] = Norwalk virus, RAW264.7, read-out: MNV-EC50
[14] = Norovirus, HuNoV replicon, read-out: HuNoV-EC50
[15] = selection pressure: 6 µM of compound 4
[16] = selection pressure: 10 µM of compound 4
[17] = selection pressure: 16 µM of compound 4
[18] = selection pressure: DMSO control
[19] = selection pressure: 10 µM of rupintrivir
[20] = selection pressure: 14 µM of rupintrivir

## CC(C)C(NC(=O)c1cc2ccccc2[nH]1)C(=O)NC(CC1CCCCC1)C(=O)NC(C=O)CC1CCNC1=O (stereo not drawn) [10b]
[1]; [13]
  EC50: 230 ± 110 nM
HuNoV GI.1 replicon [2]; [14]
  EC50: 16 ± 9 nM

## O=C[C@H](C[C@@H]1CCNC1=O)NC(=O)[C@H](CC1CCCCC1)NC(=O)c1ccc2ccccc2n1 [compound 4]
[1]
  selectivity index (SI): 35.6
[1]; Norwalk virus, RAW264.7, RAW 264.7 cells, MTS, read-out: EC50, MNV-induced CPE
  EC50: ~1000 nM
[1]; RAW 264.7 cells, MTS, read-out: EC50, MNV-induced CPE
  EC50: 700 ± 200 nM
[3]
  area under the curve (AUC) value, in words: high
  bioavailability, in words: good
  half-life (T1/2), in words: moderate
  maximal concentration (Cmax), in words: high
[3]; i.v. (5 mg/kg)
  Vss_obs: 1.498 ± 0.714 L/kg
[3]; ip, i.p. (20 mg/kg)
  AUC(0-t): 14900 ng·h/mL
  Cmax: 14500 ng/mL
  Tmax: 0.25 h
  bioavailability: 72.1%
  half-life: 5.11 ± 1.07 h
  AUC(0-inf): 15000 ng·h/mL
  MRT inf: 1.4 ± 0.06 h
[3]; iv, i.v. (5 mg/kg)
  AUC(0-t): 5160 ± 1320 ng·h/mL
  half-life: 5.5 ± 0.85 h
  AUC(0-inf): 5190 ± 1300 ng·h/mL
  clearance: 16.8 ± 4.4 mL/min/kg
  MRT inf: 1.44 ± 0.3 h
[3]; sc, s.c. (5 mg/kg)
  AUC(0-t): 4060 ± 1140 ng·h/mL
  Cmax: 2200 ± 894 ng/mL
  Tmax: 0.58 ± 0.29 h
  bioavailability: 78.6%
  half-life: 5.63 ± 0.4 h
  AUC(0-inf): 4110 ± 1140 ng·h/mL
  MRT inf: 2.95 ± 0.53 h
HuNoV GI.1 replicon [2]; HGT cells, 72 h, replicon RNA relative to β actin, read-out: EC50, HuNoV GI.1 replicon
  EC50: 1200 ± 600 nM
[4]
  shift in EC50, MNV compound 4res variant: 4.5 fold
[5]
  reduction of GI.1 protease sensitivity, single I109V mutation: did not result in a significant reduction
[6]
  shift in IC50 value, A105V/I109V mutation in GI.1 protease: not
[7]
  shift in IC50 value, A105V mutation in GI.1 protease: not
HuNoV GI.1 replicon [8]; after three passages
  reduction in HuNoV GI.1 RNA: 3 log10
HuNoV GI.1 replicon [8]; after two passages
  reduction in HuNoV GI.1 RNA: 2 log10
HuNoV GI.1 replicon [8]; two consecutive treatments with 10 µM, rebound with G418
  clearance of the HuNoV GI.1 replicon from cells: could clear cells from the HuNoV GI.1 replicon completely
[9]
  EC50: 1700 ± 600 nM
GI.1 protease
  IC50: 34000 nM
HGT cells
  adverse effects on the host cells: no adverse effects
GII protease
  IC50: 40600 nM
[10]
  CC50: 25300 ± 6100 nM
GV protease
  IC50: 32500 nM
[11]; [15]
  EC50: 3800 nM
  Fold Change in EC50: 4.5
[11]; [16]
  EC50: 4300 nM
  Fold Change in EC50: 5.2
[11]; [17]
  EC50: 11500 ± 900 nM
  Fold Change in EC50: 13.8
[11]; [18]
  EC50: 800 ± 300 nM

## Cc1cc(C(=O)NC(C(=O)NC(CC2CCCCC2)C(=O)NC(C=O)CC2CCNC2=O)C(C)C)no1 (stereo not drawn) [10a]
[1]; [13]
  EC50: 3800 ± 970 nM
HuNoV GI.1 replicon [2]; [14]
  EC50: 240 ± 110 nM

## CC(C)C(NC(=O)c1cc2ccccc2o1)C(=O)N[C@@H](CC1CCCCC1)C(=O)N[C@H](C=O)C[C@@H]1CCNC1=O (stereo partly drawn) [10c]
[1]; [13]
  EC50: 94 ± 14 nM
HuNoV GI.1 replicon [2]; [14]
  EC50: 16 ± 6 nM

## CC(C)C(NC(=O)c1ccc2ccccc2n1)C(=O)N[C@@H](CC1CCCCC1)C(=O)N[C@H](C=O)C[C@@H]1CCNC1=O (stereo partly drawn) [10d]
[1]
  selectivity index (SI): > 1000
[1]; [13]
  EC50: 37 ± 16 nM
[3]
  bioavailability, in words: good
  half-life (T1/2), in words: long
  maximal concentration (Cmax), in words: high
[3]; i.v. (5 mg/kg)
  Vss_obs: 3.867 ± 0.758 L/kg
[3]; ip, i.p. (20 mg/kg)
  AUC(0-t): 10800 ng·h/mL
  Cmax: 12700 ng/mL
  Tmax: 0.25 h
  bioavailability: 150%
  half-life: 4.26 ± 0.24 h
  AUC(0-inf): 10800 ng·h/mL
  MRT inf: 1.34 ± 0.29 h
[3]; iv, i.v. (5 mg/kg)
  AUC(0-t): 1800 ± 63 ng·h/mL
  half-life: 5.64 ± 1.63 h
  AUC(0-inf): 1810 ± 67 ng·h/mL
  clearance: 46 ± 1.7 mL/min/kg
  MRT inf: 1.4 ± 0.23 h
[3]; sc, s.c. (5 mg/kg)
  AUC(0-t): 1840 ± 717 ng·h/mL
  Cmax: 1570 ± 582 ng/mL
  Tmax: 0.42 ± 0.29 h
  bioavailability: 102%
  half-life: 6.02 ± 0.92 h
  AUC(0-inf): 1860 ± 718 ng·h/mL
  MRT inf: 1.7 ± 0.16 h
HuNoV GI.1 replicon [2]; [14]
  EC50: 12 ± 10 nM
HuNoV GI.1 replicon [2]; versus the initial hit
  fold more potent (EC50): about 100 fold
Water solubility
  water solubility: low water solubility
[5]; GI.1 protease
  shift in IC50 value, I109V mutation: 2.5 fold
[6]; GI.1 protease
  change in IC50 value, A105V/I109V mutation: 1.6 fold
[9]
  EC50: 30 ± 10 nM
GI.1 protease
  IC50: 90 nM
GI.1 protease; versus the initial hit
  improvement in the FRET assay, GI protease: ~ 300 fold
HGT cells
  adverse effects on the host cells: without adverse effects
GII protease
  IC50: 120 nM
GII protease; versus the initial hit
  improvement in the FRET assay, GII protease: ~ 300 fold
[10]
  CC50: 48000 ± 3000 nM
GV protease
  IC50: 490 nM

## CCOC(=O)/C=C/[C@H](C[C@@H]1CCNC1=O)NC(=O)[C@@H](CC(=O)[C@@H](NC(=O)c1cc(C)on1)C(C)C)Cc1ccc(F)cc1 [rupintrivir, Rupintrivir, reference compound]
[5]
  reduction of GI.1 protease sensitivity, single I109V mutation: did not result in a significant reduction
[6]
  shift in IC50 value, A105V/I109V mutation in GI.1 protease: significant shift
[7]
  shift in IC50 value, A105V mutation in GI.1 protease: significant shift
GI.1 protease; FRET, HEK293T cells, WT protease, read-out: IC50, GI.1 protease
  IC50: 3000 nM
[12]
  EC50: 13000 ± 2000 nM
GII protease; FRET, HEK293T cells, WT protease, read-out: IC50, GII protease
  IC50: 12200 nM
GV protease
  IC50: 4600 nM
[11]; [19]
  EC50: 9400 ± 500 nM
  Fold Change in EC50: 9.3
[11]; [20]
  EC50: 15000 ± 3000 nM
  Fold Change in EC50: 15
[11]; [18]
  EC50: 1000 ± 100 nM
[11]; selection pressure: 14 µM of rupintrivir, listed as Rupintrivir
  Fold Change in EC50: 15.2
